Assay results from patent US20230304010A1, “COMPOSITIONS AND METHODS FOR TREATING VIRAL INFECTIONS” (priority 2020, published 2023).
Where two headings read alike, the source gives them in different places. Ends that are not written are not given here.

Key:
[1] = molecular target: SARS-CoV-2 Spike: ACE2 interaction (UniProt P0DTC2+Q9BYF1); experiment: biochemical; format: binding
[2] = Nanoparticle formation of peptides with ADGN-106: mean size and polydispersity (Zetasizer); format: physicochemical; settings: 25° C.; for Mean Size (nm): peptide/ADGN-106 complexes; for PI: polydispersity index of peptide/ADGN-106 complexes
Source text: We then tested the ability of the different peptides to form nanoparticle organization in the presence of ADGN-106 or ADGN-100 peptide. […] Peptides were complexed with 5 or 10 molar excess of ADGN-106.

[3] = molecular target: ACE2:SARS-CoV-2 Spike interaction (UniProt P0DTC2+Q9BYF1); experiment: biochemical; format: binding
[4] = test system: SARS-CoV-2 Nucleocapsid gene; format: cell-based
in vitro = settings: uninfected Vero E6 cells

Sequence of SARS-CoV-2 Spike: ACE2 interaction (Q9BYF1 18-740, one chain of several): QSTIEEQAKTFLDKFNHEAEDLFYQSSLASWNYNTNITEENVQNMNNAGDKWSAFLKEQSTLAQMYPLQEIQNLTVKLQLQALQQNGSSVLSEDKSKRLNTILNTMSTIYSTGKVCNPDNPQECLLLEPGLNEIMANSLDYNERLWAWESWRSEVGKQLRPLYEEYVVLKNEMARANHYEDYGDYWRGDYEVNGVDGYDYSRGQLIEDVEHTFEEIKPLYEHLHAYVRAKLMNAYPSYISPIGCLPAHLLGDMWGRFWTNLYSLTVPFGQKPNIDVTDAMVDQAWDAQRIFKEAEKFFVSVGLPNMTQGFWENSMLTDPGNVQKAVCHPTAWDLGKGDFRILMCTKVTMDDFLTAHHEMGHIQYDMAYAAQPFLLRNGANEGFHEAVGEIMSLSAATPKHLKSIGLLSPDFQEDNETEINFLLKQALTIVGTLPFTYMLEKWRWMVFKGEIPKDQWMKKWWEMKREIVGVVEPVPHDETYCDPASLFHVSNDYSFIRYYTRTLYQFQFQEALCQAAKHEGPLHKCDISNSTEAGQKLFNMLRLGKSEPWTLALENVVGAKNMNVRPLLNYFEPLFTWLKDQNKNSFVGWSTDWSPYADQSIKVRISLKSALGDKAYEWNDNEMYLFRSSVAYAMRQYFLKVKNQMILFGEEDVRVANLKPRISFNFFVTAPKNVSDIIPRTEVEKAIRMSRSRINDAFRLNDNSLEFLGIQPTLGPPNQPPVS
Sequence of ACE2:SARS-CoV-2 Spike interaction (Q9BYF1 18-740, one chain of several): as above

Compound | Mean Size (nm) [2] | PI [2] | IC50 ([1]; SARS-CoV-2 Spike:ACE2 IC50) | IC50 ([3]; ACE2:SARS-CoV-2 Spike IC50) | IC50 [4] | other results
Ac-T*EYQAGSTK*Ava-LWRALWRLWRSLWRLLWK-NH2 [Seq16] | 44.2 ± 7 nm | 0.28 |  |  |  | IC50 ([1]; read-out: SARS-CoV-2 Spike:ACE2 IC50): > 1000 nM; IC50 ([3]; read-out: ACE2:SARS-CoV-2 Spike IC50): > 10000 nM
CSCC[C@H](NC(=O)[C@H](CCC(N)=O)NC(=O)[C@H](C)NC(=O)[C@H](CC(C)C)NC(=O)[C@@H](NC(=O)[C@H](CO)NC(=O)[C@H](CCC(N)=O)NC(=O)[C@H](CCC(=O)O)NC(=O)[C@H](CCCCN)NC(=O)[C@H](CC(C)C)NC(=O)[C@H](Cc1ccccc1)NC(=O)[C@H](C)NC(=O)[C@H](CO)NC(=O)[C@H](Cc1c[nH]c2ccccc12)NC(=O)[C@H](CCCCN)NC(=O)[C@@H]1CCCN1C(=O)[C@H](Cc1ccccc1)NC(=O)[C@H](CC(C)C)NC(=O)[C@H](CC(=O)O)NC(=O)[C@H](CCC(=O)O)NC(=O)[C@H](C)NC(=O)[C@H](CCC(=O)O)NC(=O)[C@H](Cc1c[nH]cn1)NC(=O)[C@H](CC(N)=O)NC(=O)[C@H](Cc1ccccc1)NC(=O)[C@H](CCCCN)NC(=O)[C@H](CC(=O)O)NC(=O)[C@H](CC(C)C)NC(=O)[C@H](Cc1ccccc1)NC(=O)[C@@H](NC(=O)[C@H](CCCCN)NC(=O)[C@H](C)NC(=O)[C@H](CCC(N)=O)NC(=O)[C@H](CCC(=O)O)NC(C)=O)[C@@H](C)O)[C@@H](C)O)C(=O)N[C@@H](Cc1ccc(O)cc1)C(=O)NCC(=O)NCCCCCC(=O)N[C@@H](CC(C)C)C(=O)N[C@@H](Cc1c[nH]c2ccccc12)C(=O)N[C@@H](CCCNC(=N)N)C(=O)N[C@@H](C)C(=O)N[C@@H](CC(C)C)C(=O)N[C@@H](Cc1c[nH]c2ccccc12)C(=O)N[C@@H](CCCNC(=N)N)C(=O)N[C@@H](CC(C)C)C(=O)N[C@@H](Cc1c[nH]c2ccccc12)C(=O)N[C@@H](CCCNC(=N)N)C(=O)N[C@@H](CO)C(=O)N[C@@H](CC(C)C)C(=O)N[C@@H](Cc1c[nH]c2ccccc12)C(=O)N[C@@H](CCCNC(=N)N)C(=O)N[C@@H](CC(C)C)C(=O)N[C@@H](CC(C)C)C(=O)N[C@@H](Cc1c[nH]c2ccccc12)C(=O)N[C@@H](CCCCN)C(N)=O [Seq39] | 48.5 ± 5 nm | 0.29 | 55.2 nM | 68.4 ± 10 nM |  | increase of potency/efficiency by covalent coupling to ADGN peptide [3]: 1.4 folds
CSCC[C@H](NC(=O)[C@H](CCC(N)=O)NC(=O)[C@H](C)NC(=O)[C@H](CC(C)C)NC(=O)[C@@H](NC(=O)[C@H](CO)NC(=O)[C@H](CCC(N)=O)NC(=O)[C@H](CCC(=O)O)NC(=O)[C@H](CCCCN)NC(=O)[C@H](CC(C)C)NC(=O)[C@H](Cc1ccccc1)NC(=O)[C@H](C)NC(=O)[C@H](CO)NC(=O)[C@H](Cc1c[nH]c2ccccc12)NC(=O)[C@H](CCCCN)NC(=O)[C@@H]1CCCN1C(=O)[C@H](Cc1ccccc1)NC(=O)[C@H](CC(C)C)NC(=O)[C@H](CC(=O)O)NC(=O)[C@H](CCC(=O)O)NC(=O)[C@H](C)NC(=O)[C@H](CCC(=O)O)NC(=O)[C@H](Cc1c[nH]cn1)NC(=O)[C@H](CC(N)=O)NC(=O)[C@H](Cc1ccccc1)NC(=O)[C@H](CCCCN)NC(=O)[C@H](CC(=O)O)NC(=O)[C@H](CC(C)C)NC(=O)[C@H](Cc1ccccc1)NC(=O)[C@@H](NC(=O)[C@H](CCCCN)NC(C)=O)[C@@H](C)O)[C@@H](C)O)C(=O)N[C@@H](Cc1ccc(O)cc1)C(=O)NCC(=O)NCCCCCC(=O)N[C@@H](CC(C)C)C(=O)N[C@@H](Cc1c[nH]c2ccccc12)C(=O)N[C@@H](CCCNC(=N)N)C(=O)N[C@@H](C)C(=O)N[C@@H](CC(C)C)C(=O)N[C@@H](Cc1c[nH]c2ccccc12)C(=O)N[C@@H](CCCNC(=N)N)C(=O)N[C@@H](CC(C)C)C(=O)N[C@@H](Cc1c[nH]c2ccccc12)C(=O)N[C@@H](CCCNC(=N)N)C(=O)N[C@@H](CO)C(=O)N[C@@H](CC(C)C)C(=O)N[C@@H](Cc1c[nH]c2ccccc12)C(=O)N[C@@H](CCCNC(=N)N)C(=O)N[C@@H](CC(C)C)C(=O)N[C@@H](CC(C)C)C(=O)N[C@@H](Cc1c[nH]c2ccccc12)C(=O)N[C@@H](CCCCN)C(N)=O [Seq40] | 54.5 ± 14 nm | 0.31 | 45.1 nM | 85.4 ± 12 nM |  | increase of potency/efficiency by covalent coupling to ADGN peptide [3]: 1.4 folds
GGCTGATGAAACTCAAGCCTT (chemistry not given here) [DIVC-5] |  |  |  |  | > 500 nM | 
CSCC[C@H](NC(=O)[C@H](CO)NC(=O)[C@H](CC(N)=O)NC(=O)[C@H](CCC(=O)O)NC(=O)[C@H](Cc1c[nH]c2ccccc12)NC(=O)[C@H](Cc1ccccc1)NC(=O)CNC(=O)[C@H](CCC(N)=O)NC(=O)[C@@H](NC(=O)[C@H](CCSC)NC(=O)[C@H](CC(N)=O)NC(C)=O)[C@@H](C)O)C(=O)N[C@@H](CC(C)C)C(=O)N[C@H](C(=O)N[C@@H](CC(=O)O)C(=O)NCCCCCC(=O)N[C@@H](CC(C)C)C(=O)N[C@@H](Cc1c[nH]c2ccccc12)C(=O)N[C@@H](CCCNC(=N)N)C(=O)N[C@@H](C)C(=O)N[C@@H](CC(C)C)C(=O)N[C@@H](Cc1c[nH]c2ccccc12)C(=O)N[C@@H](CCCNC(=N)N)C(=O)N[C@@H](CC(C)C)C(=O)N[C@@H](Cc1c[nH]c2ccccc12)C(=O)N[C@@H](CCCNC(=N)N)C(=O)N[C@@H](CO)C(=O)N[C@@H](CC(C)C)C(=O)N[C@@H](Cc1c[nH]c2ccccc12)C(=O)N[C@@H](CCCNC(=N)N)C(=O)N[C@@H](CC(C)C)C(=O)N[C@@H](CC(C)C)C(=O)N[C@@H](Cc1c[nH]c2ccccc12)C(=O)N[C@@H](CCCCN)C(N)=O)[C@@H](C)O [Seq37] | 59.2 ± 14 nm | 0.24 | > 1000 nM | 645 nM |  | 
GCAGACGTGGTCCAGAACAAA (chemistry not given here) [DIVC-7] |  |  |  |  | 147 nM | 
Ac-S*KVGGNYNYLY*R-Ava/Ahx-LWRALWRLWRSLWRLLWK-NH2 [Seq12] | 35.4 ± 5 nm | 0.21 |  |  |  | blocked ACE2:SARS-CoV-2 Spike interaction [3]: blocked
GCAACAATCCATGAGCAGTGC (chemistry not given here) [DIVC-10] |  |  |  |  | 28.4 nM | 
GCAACTGAGGGAGCCTTGAAT (chemistry not given here) [DIVC-1] |  |  |  |  | > 500 nM | 
AAGCATATTGACGCATACAAA (chemistry not given here) [DIVC-9] |  |  |  |  | 394 nM | 
GACCAGGAACTAATCAGACAA (chemistry not given here) [DIVC-2] |  |  |  |  | > 500 nM | 
CC(=O)N[C@@H](CCCCN)C(=O)N[C@H](C(=O)N[C@@H](Cc1ccccc1)C(=O)N[C@@H](CC(C)C)C(=O)N[C@@H](CC(=O)O)C(=O)N[C@@H](CCCCN)C(=O)N[C@@H](Cc1ccccc1)C(=O)N[C@@H](CC(N)=O)C(=O)N[C@@H](Cc1c[nH]cn1)C(=O)N[C@@H](CCC(=O)O)C(=O)N[C@@H](C)C(=O)N[C@@H](CCC(=O)O)C(=O)N[C@@H](CC(=O)O)C(=O)N[C@@H](CC(C)C)C(=O)N[C@@H](Cc1ccccc1)C(=O)N[C@@H](Cc1ccc(O)cc1)C(=O)N[C@@H](CO)C(=O)NCCCCCC(=O)N[C@@H](CC(C)C)C(=O)N[C@@H](Cc1c[nH]c2ccccc12)C(=O)N[C@@H](CCCNC(=N)N)C(=O)N[C@@H](C)C(=O)N[C@@H](CC(C)C)C(=O)N[C@@H](Cc1c[nH]c2ccccc12)C(=O)N[C@@H](CCCNC(=N)N)C(=O)N[C@@H](CC(C)C)C(=O)N[C@@H](Cc1c[nH]c2ccccc12)C(=O)N[C@@H](CCCNC(=N)N)C(=O)N[C@@H](CO)C(=O)N[C@@H](CC(C)C)C(=O)N[C@@H](Cc1c[nH]c2ccccc12)C(=O)N[C@@H](CCCNC(=N)N)C(=O)N[C@@H](CC(C)C)C(=O)N[C@@H](CC(C)C)C(=O)N[C@@H](Cc1c[nH]c2ccccc12)C(=O)N[C@@H](CCCCN)C(N)=O)[C@@H](C)O [Seq35] | 44 ± 10 nm | 0.22 | 546 nM | 728 nM |  | 
CC(C)C[C@H](NC(=O)[C@H](Cc1ccc(O)cc1)NC(=O)[C@H](CC(N)=O)NC(=O)[C@H](Cc1ccc(O)cc1)NC(=O)[C@H](CC(N)=O)NC(=O)CNC(=O)CNC(=O)[C@@H](NC(=O)[C@H](CCCCN)NC(=O)[C@@H](N)CO)C(C)C)C(=O)N[C@@H](Cc1ccc(O)cc1)C(=O)N[C@@H](CCCNC(=N)N)C(=O)O [Seq1] |  |  | > 10000 nM | > 10000 nM |  | 
Ac-EQAKTFLDKFNHEAEDLFPKWSAFLKEQSTLAQMYG [Seq27] | 62.1 ± 10 nm | 0.21 |  |  |  | folds more potent than SBP-1-ADGN-106/ADGN-106 complex [1]: 4 folds; folds more potent than SBP-1 coupled to ADGN-106 [1]: 3.5 folds; folds more potent than SBP-1 peptide/ADGN-106 complex [1]: 35 folds; folds more potent than free SBP-1 [1]: 7 folds; folds more potent than SBP-1-ADGN-106/ADGN-106 complex [3]: 6 folds; folds more potent than SBP-1 coupled to ADGN-106 [3]: 6 folds; folds more potent than SBP-1 peptide/ADGN-106 complex [3]: 40 folds; folds more potent than free SBP-1 [3]: 15 folds
CC(C)C[C@H](NC(=O)[C@H](C)NC(=O)[C@H](CCCNC(=N)N)NC(=O)[C@H](Cc1c[nH]c2ccccc12)NC(=O)[C@@H](N)CC(C)C)C(=O)N[C@@H](Cc1c[nH]c2ccccc12)C(=O)N[C@@H](CCCNC(=N)N)C(=O)N[C@@H](CC(C)C)C(=O)N[C@@H](Cc1c[nH]c2ccccc12)C(=O)N[C@@H](CCCNC(=N)N)C(=O)N[C@@H](CO)C(=O)N[C@@H](CC(C)C)C(=O)N[C@@H](Cc1c[nH]c2ccccc12)C(=O)N[C@@H](CCCNC(=N)N)C(=O)N[C@@H](CC(C)C)C(=O)N[C@@H](CC(C)C)C(=O)N[C@@H](Cc1c[nH]c2ccccc12)C(=O)N[C@@H](CCCCN)C(=O)O [ADGN-106, reference compound] |  |  |  |  |  | CC50 (in vitro): 356000 ± 64000 nM; viability at 0.5 µM (in vitro): 84%
GACTTCCCTATGGTGCTAACA (chemistry not given here) [DIVC-4] |  |  |  |  | 254 nM | 
Ac-TAWDLGKGDFRI [Seq29] |  |  | > 10000 nM | > 10000 nM |  | IC50 ([1]; IC50, block of SARS-CoV-2 Spike: ACE2 interaction): > 10000 nM; IC50 ([3]; IC50, block of ACE2:SARS-CoV-2 Spike interaction): > 10000 nM
